Measurements reported in ChEMBL document CHEMBL5046315, “CRCM5484: A BET-BDII Selective Compound with Differential Anti-leukemic Drug Modulation” (J Med Chem, 2022).
pEC50, pIC50, pKd: −log10 of the molar value. Active and inactive are the calls of the source. The calls are words filed in the database; no cut-off is given here.

Legend:
[1] = target: T1, Bromodomain-containing protein 3 (Homo sapiens, UniProt Q15059); assay: Inhibition of BRD3-BD2 (unknown origin) incubated for 6 hrs by HTRF method
T1 sequence (Q15059 whole entry, the tested form may be a part): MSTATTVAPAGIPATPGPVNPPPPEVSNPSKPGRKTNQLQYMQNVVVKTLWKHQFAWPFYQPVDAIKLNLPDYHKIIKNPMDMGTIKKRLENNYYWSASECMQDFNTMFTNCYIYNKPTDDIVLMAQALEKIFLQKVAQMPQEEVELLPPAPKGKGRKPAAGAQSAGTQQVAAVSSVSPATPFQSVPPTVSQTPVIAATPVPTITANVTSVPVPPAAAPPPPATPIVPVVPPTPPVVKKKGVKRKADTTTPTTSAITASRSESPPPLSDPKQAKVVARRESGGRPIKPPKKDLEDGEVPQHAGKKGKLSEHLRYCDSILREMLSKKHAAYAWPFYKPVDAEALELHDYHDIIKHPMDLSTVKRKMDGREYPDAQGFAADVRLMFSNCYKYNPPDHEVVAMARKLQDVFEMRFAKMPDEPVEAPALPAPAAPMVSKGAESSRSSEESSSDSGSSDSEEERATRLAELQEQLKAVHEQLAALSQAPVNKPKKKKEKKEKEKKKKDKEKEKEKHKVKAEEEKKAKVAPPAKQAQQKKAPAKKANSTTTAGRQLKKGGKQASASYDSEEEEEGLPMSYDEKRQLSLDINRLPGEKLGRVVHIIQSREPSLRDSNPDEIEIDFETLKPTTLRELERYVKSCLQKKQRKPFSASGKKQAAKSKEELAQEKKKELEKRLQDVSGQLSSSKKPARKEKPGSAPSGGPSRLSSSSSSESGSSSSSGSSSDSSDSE

[2] = target: T1, Bromodomain-containing protein 3; assay: Inhibition of BRD3-BD1 domain (unknown origin) incubated for 6 hrs by HTRF method
Homo sapiens [3] = species: Homo sapiens; assay: Selectivity ratio of IC50 for BRD3-BD1 (unknown origin) to IC50 for BRD3-BD2 (unknown origin)
[4] = target: T2, Bromodomain-containing protein 4 (Homo sapiens, UniProt O60885); assay: Inhibition of BRD4-BD2 (unknown origin) (K333 to E460 residues) expressed in bacterial system assessed as dissociation constant by BROMOscan method
[5] = target: T2, Bromodomain-containing protein 4; assay: Inhibition of BRD4-BD1 (unknown origin) (N44 to E168 residues) expressed in bacterial expression system assessed as dissociation constant by BROMOscan method
[6] = target: T2, Bromodomain-containing protein 4; assay: Inhibition of BRD4-BD1 (unknown origin) incubated for 6 hrs by HTRF method
Homo sapiens [7] = species: Homo sapiens; assay: Selectivity ratio of IC50 for BRD4-BD1 (unknown origin) to IC50 for BRD4-BD2 (unknown origin)
[8] = target: T2, Bromodomain-containing protein 4; assay: Inhibition of BRD4-BD2 (unknown origin) incubated for 6 hrs by HTRF method
[9] = target: T3, Bromodomain-containing protein 2 (Homo sapiens, UniProt P25440); assay: Inhibition of BRD2-BD2 (unknown origin) incubated for 6 hrs by HTRF method
T3 sequence (P25440 whole entry): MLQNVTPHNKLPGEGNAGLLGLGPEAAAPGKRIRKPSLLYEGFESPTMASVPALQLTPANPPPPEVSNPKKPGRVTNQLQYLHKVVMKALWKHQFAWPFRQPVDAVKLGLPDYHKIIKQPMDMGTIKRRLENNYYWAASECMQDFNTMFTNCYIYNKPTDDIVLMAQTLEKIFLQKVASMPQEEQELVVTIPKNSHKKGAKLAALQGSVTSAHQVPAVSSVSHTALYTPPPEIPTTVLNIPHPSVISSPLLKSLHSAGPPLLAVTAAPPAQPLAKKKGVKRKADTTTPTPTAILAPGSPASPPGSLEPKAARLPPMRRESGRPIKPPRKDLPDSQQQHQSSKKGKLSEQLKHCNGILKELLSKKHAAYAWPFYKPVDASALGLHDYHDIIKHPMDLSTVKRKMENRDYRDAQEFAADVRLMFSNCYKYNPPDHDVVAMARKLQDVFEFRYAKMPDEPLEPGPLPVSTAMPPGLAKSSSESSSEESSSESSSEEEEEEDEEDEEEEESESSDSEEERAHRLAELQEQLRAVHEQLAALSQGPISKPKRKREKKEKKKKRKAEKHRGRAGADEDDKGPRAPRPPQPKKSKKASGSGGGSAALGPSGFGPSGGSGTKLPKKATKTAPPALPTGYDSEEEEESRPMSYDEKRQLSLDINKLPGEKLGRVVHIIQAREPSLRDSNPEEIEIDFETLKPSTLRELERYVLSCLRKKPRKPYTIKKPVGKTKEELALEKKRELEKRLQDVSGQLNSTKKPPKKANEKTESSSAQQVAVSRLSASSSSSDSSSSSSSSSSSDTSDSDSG

[10] = target: T1, Bromodomain-containing protein 3; assay: Binding affinity to human partial length BRD3-BD2 (G306 to P416) expressed in bacterial system assessed as dissociation constant by BROMOscan method
[11] = target: T2, Bromodomain-containing protein 4; assay: Binding affinity to human partial length BRD4-BD2 (K333 to E460 residues) expressed in bacterial system assessed as dissociation constant by BROMOscan method
[12] = target: T3, Bromodomain-containing protein 2; assay: Binding affinity to human partial length BRD2-BD2 (E348 to D455) expressed in bacterial system assessed as dissociation constant by BROMOscan method
MOLM-14 [13] = assay: Downregulation of Myc expression in human MOLM-14 cells incubated for 2 hrs by RT-PCR analysis; format: functional, cell-based; details: dose 5.0 µM
MOLM-14 [14] = assay: cells; details: Homo sapiens, MOLM-14, 72 h
Description: Cytotoxicity against human MOLM-14 cells assessed as reduction in cell viability incubated for 72 hrs

K562 [15] = assay: Inhibition of IFNgamma induced MHC-1 expression in human K562 cells treated for 48 hrs by flow cytometric analysis; format: functional, cell-based; details: dose 0.2-20 µM
NB-4 = assay: Cytotoxicity against human NB-4 cells assessed as reduction in cell viability incubated for 72 hrs; format: functional, cell-based; details: NB-4, 72 h
[16] = target: T1, Bromodomain-containing protein 3; assay: Inhibition of BRD3-BD1 (unknown origin) assessed as dissociation constant by TR-FRET method
K562 [17] = assay: Cytotoxicity against human K562 cells assessed as reduction in cell viability incubated for 72 hrs; format: functional, cell-based; details: K562, 72 h
CCRF-CEM = assay: Cytotoxicity against human CCRF-CEM cells assessed as reduction in cell viability incubated for 72 hrs; format: functional, cell-based

CC(=O)N1CCc2c(sc3nc(SCC(=O)Nc4ccc(F)cc4)n(Cc4ccco4)c(=O)c23)C1
pIC50 [1]: 6.38
pIC50 [2]: 5.44
Ratio IC50 (Homo sapiens [3]): 7

CC(=O)N1CCc2c(sc3nc(SCC(=O)Nc4cccc(C)c4)n(Cc4ccco4)c(=O)c23)C1
pIC50 [1]: 6.36
Ratio IC50 (Homo sapiens [3]): 12

CCOc1ccc(NC(=O)CSc2nc3sc4c(c3c(=O)n2Cc2ccco2)CCN(C(C)=O)C4)cc1
pIC50 [1]: 6.06
pIC50 [2]: 5.89
Ratio IC50 (Homo sapiens [3]): 4

CC(=O)N1c2ccc(C3=CCNCC3)cc2N(Cc2ccccc2CO)C[C@@H]1C1CC1
pKd [4]: 7.20
pKd [5]: 5.52

CCOc1ccccc1NC(=O)CSc1nc2sc3c(c2c(=O)n1Cc1ccco1)CCN(C(C)=O)C3
pIC50 [1]: 6.82
pIC50 [2]: 5.36
Ratio IC50 (Homo sapiens [3]): 23

CC(=O)N1CCc2c(sc3nc(SCC(=O)Nc4cccc(Cl)c4)n(Cc4ccco4)c(=O)c23)C1
pIC50 [1]: 6.31
pIC50 [2]: 5.51
Ratio IC50 (Homo sapiens [3]): 9

Cc1nn(CCO)c(C)c1-c1c(C)c(-c2ccc(O)cc2)nc(N)c1C#N
pIC50 [6]: 5.09
Ratio IC50 (Homo sapiens [7]): 9
pIC50 [8]: 6.05

CC(=O)N1CCc2c(sc3nc(SCC(=O)Nc4ccccc4Cl)n(Cc4ccco4)c(=O)c23)C1
pIC50 [1]: 7.00
pIC50 [2]: 5.55
Ratio IC50 (Homo sapiens [3]): 23

CC(=O)N1CCc2c(sc3nc(SCC(=O)Nc4ccc(F)cc4F)n(Cc4ccco4)c(=O)c23)C1
pIC50 [1]: 6.42
pIC50 [2]: 5.46
Ratio IC50 (Homo sapiens [3]): 13

CC(=O)c1cccc(NC(=O)CSc2nc3sc4c(c3c(=O)n2Cc2ccco2)CCN(C(C)=O)C4)c1
pIC50 [1]: 6.77
pIC50 [2]: 5.39
Ratio IC50 (Homo sapiens [3]): 9

CC(=O)N1CCc2c(sc3nc(SCC(=O)Nc4ccccc4)n(-c4ccccc4)c(=O)c23)C1
pIC50 [1]: 5.26
pIC50 [2]: < 4.60
Ratio IC50 (Homo sapiens [3]): > 5

CC(=O)N1CCc2c(sc3nc(SCC(=O)Nc4cc(Cl)ccc4C)n(Cc4ccco4)c(=O)c23)C1
pIC50 [9]: 6.92
pIC50 [10]: 6.49
pIC50 [1]: 7.07
pIC50 [2]: 5.07
pIC50 [11]: 6.11
Ratio IC50 (Homo sapiens [7]): 4.4
pIC50 [12]: 5.59
pIC50 [8]: 6.05

CSc1cccc(NC(=O)CSc2nc3sc4c(c3c(=O)n2Cc2ccco2)CCN(C(C)=O)C4)c1
pIC50 [1]: 6.39
pIC50 [2]: 5.19
Ratio IC50 (Homo sapiens [3]): 11

CC(=O)N1CCc2c(sc3nc(SCC(=O)Nc4ccc(F)c(F)c4)n(Cc4ccco4)c(=O)c23)C1
pIC50 [1]: 6.33
pIC50 [2]: 5.31
Ratio IC50 (Homo sapiens [3]): 8

Cc1sc2c(c1C)C(c1ccc(Cl)cc1)=N[C@@H](CC(=O)Nc1ccc(O)cc1)c1nnc(C)n1-2 [BIRABRESIB]
Activity (MOLM-14 [13]): Dose-Dependent Effect
pEC50 (MOLM-14 [14]): 7.10
Activity (K562 [15]): Active

O=C1c2ccc(Oc3cccc(Oc4ccc5c(c4)C(=O)N(c4ccc(O)cc4)C5=O)c3)cc2C(=O)N1c1ccc(O)cc1
Ratio IC50 (Homo sapiens [7]): 0.4
pIC50 [8]: 5.49

CC(=O)N1CCc2c(sc3nc(SCC(=O)Nc4ccc(C)c(F)c4)n(Cc4ccco4)c(=O)c23)C1
pIC50 [1]: 6.68
pIC50 [2]: 5.38
Ratio IC50 (Homo sapiens [3]): 31

COc1cc(C(=O)C(=Cc2ccncc2)c2nc3ccccc3o2)cc(OC)c1OC
Ratio IC50 (Homo sapiens [7]): 5.4
pIC50 [8]: 6.10

CC(=O)Nc1c(F)cc(C(=O)N[C@H]2CC[C@H](O)CC2)cc1O[C@@H](C)c1ccccc1 [GSK046]
pEC50 (NB-4): < 5.30
pIC50 [16]: 5.44
pEC50 (K562 [17]): < 5.30
pEC50 (CCRF-CEM): < 5.30
Activity (MOLM-14 [13]): Dose-Dependent Effect
pEC50 (MOLM-14 [14]): 4.85

CC(=O)c1ccc(NC(=O)CSc2nc3sc4c(c3c(=O)n2Cc2ccco2)CCN(C(C)=O)C4)cc1
pIC50 [1]: 6.49
pIC50 [2]: 5.82
Ratio IC50 (Homo sapiens [3]): 4

CC(=O)N1CCc2c(sc3nc(SCC(=O)Nc4cc(Cl)ccc4C)n(-c4ccc(C)o4)c(=O)c23)C1
pIC50 [1]: 6.39
pIC50 [2]: 5.11
Ratio IC50 (Homo sapiens [3]): 19

COc1cccc(NC(=O)CSc2nc3sc4c(c3c(=O)n2Cc2ccco2)CCN(C(C)=O)C4)c1
pIC50 [1]: 6.52
pIC50 [2]: 4.85
Ratio IC50 (Homo sapiens [3]): 9

CC(=O)N1CCc2c(sc3nc(SCC(=O)Nc4cc(Cl)ccc4C)n(-c4ccccc4)c(=O)c23)C1
pIC50 [1]: 5.20
pIC50 [2]: < 4.60
Ratio IC50 (Homo sapiens [3]): > 4

COc1cc(OC)c2c(=O)[nH]c(-c3cc(C)c(OCCO)c(C)c3)nc2c1 [APABETALONE]
pEC50 (NB-4): < 5.30
pEC50 (K562 [17]): < 5.30
pEC50 (CCRF-CEM): < 5.30
Activity (MOLM-14 [13]): Dose-Dependent Effect
pEC50 (MOLM-14 [14]): 5.17

Cc1ccc(-c2c(C)noc2C)cc1S(=O)(=O)Nc1cccc(C)c1C
Ratio IC50 (Homo sapiens [7]): 12
pIC50 [8]: 6.05

CC(=O)N1CCc2c(sc3nc(SCC(=O)Nc4ccccc4C)n(Cc4ccco4)c(=O)c23)C1
pIC50 [1]: 6.66
pIC50 [2]: 5.52
Ratio IC50 (Homo sapiens [3]): 15

CC(=O)N1CCc2c(sc3nc(SCC(=O)Nc4ccc(Cl)cc4)n(Cc4ccco4)c(=O)c23)C1
pIC50 [1]: 6.28
pIC50 [2]: 5.35
Ratio IC50 (Homo sapiens [3]): 8

CC(=O)N1CCc2c(sc3nc(SCC(=O)Nc4ccc(C)cc4)n(Cc4ccco4)c(=O)c23)C1
pIC50 [1]: 6.20
pIC50 [2]: 5.49
Ratio IC50 (Homo sapiens [3]): 5

CC(=O)N1CCc2c(sc3nc(SCC(=O)Nc4ccccc4)n(Cc4ccco4)c(=O)c23)C1
pIC50 [1]: 6.85
pIC50 [2]: 4.85
Ratio IC50 (Homo sapiens [3]): 100

CC(=O)N1CCc2c(sc3nc(SCC(=O)Nc4ccccc4F)n(Cc4ccco4)c(=O)c23)C1
pIC50 [1]: 6.68
pIC50 [2]: 5.12
Ratio IC50 (Homo sapiens [3]): 20

Cc1cc(F)ccc1NS(=O)(=O)c1cc(-c2c(C)noc2C)ccc1C
Ratio IC50 (Homo sapiens [7]): 4.9
pIC50 [8]: 5.82

CCc1cccc(C)c1NS(=O)(=O)c1cc(-c2c(C)noc2C)ccc1C
Ratio IC50 (Homo sapiens [7]): 7.8
pIC50 [8]: 5.96

COc1ccc(NC(=O)CSc2nc3sc4c(c3c(=O)n2Cc2ccco2)CCN(C(C)=O)C4)cc1
pIC50 [1]: 6.24
pIC50 [2]: 5.66
Ratio IC50 (Homo sapiens [3]): 6

COc1ccccc1NC(=O)CSc1nc2sc3c(c2c(=O)n1Cc1ccco1)CCN(C(C)=O)C3
pIC50 [1]: 7.14
Ratio IC50 (Homo sapiens [3]): 31

CC(=O)N1CCc2c(sc3nc(SCC(=O)Nc4cc(F)ccc4F)n(Cc4ccco4)c(=O)c23)C1
pIC50 [1]: 6.77
pIC50 [2]: 5.35
Ratio IC50 (Homo sapiens [3]): 24

CCC(=O)N1CCc2c(sc3[nH]c(=O)n(C4CCCCC4)c(=O)c23)C1
pIC50 [2]: < 4.60

CC(=O)N1CCc2c(sc3nc(SCC(=O)Nc4ccc(F)c(Cl)c4)n(Cc4ccco4)c(=O)c23)C1
pIC50 [1]: 6.13
pIC50 [2]: 5.42
Ratio IC50 (Homo sapiens [3]): 7
